Tests used:
Format in all cases: biochemical
human DPP IV = biological target: T1, human DPP IV (Homo sapiens, UniProt P27487); assay: DPP IV activity screening (Ala-Pro-AMC fluorescence)
T1 construct: extracellular fragment of protease DPP IV (aa29-766); made in house; host or cells: baculovirus expression system Bac-to-Bac
In short: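 DPP IV activity is taken as the linear rate of fluorescence change at 460 nm. Samples are dissolved in DMSO and screened at a single concentration (e.g. 20 μg/mL). Dose-response data are fit to a variable-slope sigmoidal model with bottom and top fixed at 0 and 100.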

[1] = biological target: dipeptidyl peptidase 7 (DPP 7) (Homo sapiens, UniProt Q9UHL4); assay: DPP 7 activity screening; settings: N.I. = No Inhibition
In short: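 Sample dissolved in DMSO, final DMSO kept at a level not affecting activity; tested at a single concentration from preliminary screening (e.g. 20 μg/mL). Dose-response data fitted to sigmoidal variable-slope model with bottom and top fixed at 0 and 100.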

human DPP 8 = biological target: T2, human DPP 8 (Homo sapiens, UniProt Q6V1X1); assay: DPP 8 activity screening (Ala-Pro-AMC fluorescence); settings: N.I. = No Inhibition
T2 construct: made in house; host or cells: insect cells, baculovirus Bac-to-Bac
In short: (§1)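 Insect-cell baculovirus-expressed human enzymes hydrolyse Ala-Pro-AMC; AMC release monitored kinetically as fluorescence rate (ex 355/em 460 nm). Primary screen at a single concentration (e.g. 20 μg/mL); dose–response fitted to variable-slope sigmoid with bottom/top fixed at 0 and 100.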

Human DPP 9 = biological target: T3, Human DPP 9 (Homo sapiens, UniProt Q86TI2); assay: DPP 9 activity screening (Ala-Pro-AMC fluorescence); settings: N.I. = No Inhibition
T3 construct: made in house; host or cells: insect cells, baculovirus Bac-to-Bac
In short: as §1

FAP = biological target: T4, FAP (Homo sapiens, UniProt Q12884); assay: FAP inhibition (Table 1); settings: N.I. = No Inhibition
T4 sequence (Q12884 1-760): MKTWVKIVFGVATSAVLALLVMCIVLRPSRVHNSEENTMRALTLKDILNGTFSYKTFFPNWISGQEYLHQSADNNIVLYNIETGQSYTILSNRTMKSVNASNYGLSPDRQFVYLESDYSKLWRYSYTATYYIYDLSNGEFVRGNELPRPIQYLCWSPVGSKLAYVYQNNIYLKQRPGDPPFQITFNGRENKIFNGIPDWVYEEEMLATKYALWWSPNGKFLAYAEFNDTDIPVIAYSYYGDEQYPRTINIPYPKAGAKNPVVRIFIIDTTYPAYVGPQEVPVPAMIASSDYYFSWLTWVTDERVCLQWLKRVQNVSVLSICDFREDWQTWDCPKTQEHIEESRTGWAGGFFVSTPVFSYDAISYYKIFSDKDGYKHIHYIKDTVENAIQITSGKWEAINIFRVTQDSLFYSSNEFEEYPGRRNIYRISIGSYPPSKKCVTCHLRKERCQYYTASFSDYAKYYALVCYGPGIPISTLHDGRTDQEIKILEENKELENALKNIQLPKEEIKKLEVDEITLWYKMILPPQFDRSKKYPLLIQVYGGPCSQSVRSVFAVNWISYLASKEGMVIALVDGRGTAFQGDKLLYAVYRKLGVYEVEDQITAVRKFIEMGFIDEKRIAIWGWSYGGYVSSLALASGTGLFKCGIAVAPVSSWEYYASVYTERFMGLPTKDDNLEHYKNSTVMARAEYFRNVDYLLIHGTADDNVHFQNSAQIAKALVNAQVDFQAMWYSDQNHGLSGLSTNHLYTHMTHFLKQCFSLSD

T2 sequence (Q6V1X1 whole entry): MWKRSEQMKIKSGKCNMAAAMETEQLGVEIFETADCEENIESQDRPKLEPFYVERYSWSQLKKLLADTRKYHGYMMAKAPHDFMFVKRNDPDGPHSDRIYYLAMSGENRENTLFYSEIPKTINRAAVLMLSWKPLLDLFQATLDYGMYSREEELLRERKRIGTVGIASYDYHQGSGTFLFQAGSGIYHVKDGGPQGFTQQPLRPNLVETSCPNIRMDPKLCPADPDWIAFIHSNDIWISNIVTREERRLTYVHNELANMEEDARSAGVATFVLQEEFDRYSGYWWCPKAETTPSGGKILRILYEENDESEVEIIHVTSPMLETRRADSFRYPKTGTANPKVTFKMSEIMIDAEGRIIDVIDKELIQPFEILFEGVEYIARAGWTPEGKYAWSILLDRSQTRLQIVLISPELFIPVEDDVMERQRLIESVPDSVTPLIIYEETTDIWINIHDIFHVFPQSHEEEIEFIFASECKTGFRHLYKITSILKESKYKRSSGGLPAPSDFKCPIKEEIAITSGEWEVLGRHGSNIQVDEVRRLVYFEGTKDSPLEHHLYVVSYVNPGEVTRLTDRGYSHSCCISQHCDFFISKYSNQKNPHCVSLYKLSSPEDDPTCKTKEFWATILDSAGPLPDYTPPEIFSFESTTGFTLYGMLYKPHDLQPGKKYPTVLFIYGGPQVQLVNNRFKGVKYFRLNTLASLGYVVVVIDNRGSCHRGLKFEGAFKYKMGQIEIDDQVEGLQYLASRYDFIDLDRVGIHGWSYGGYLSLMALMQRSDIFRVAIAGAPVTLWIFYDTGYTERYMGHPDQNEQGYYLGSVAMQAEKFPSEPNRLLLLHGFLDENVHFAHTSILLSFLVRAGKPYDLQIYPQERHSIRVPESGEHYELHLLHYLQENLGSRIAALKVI
T1 sequence (P27487 29-766): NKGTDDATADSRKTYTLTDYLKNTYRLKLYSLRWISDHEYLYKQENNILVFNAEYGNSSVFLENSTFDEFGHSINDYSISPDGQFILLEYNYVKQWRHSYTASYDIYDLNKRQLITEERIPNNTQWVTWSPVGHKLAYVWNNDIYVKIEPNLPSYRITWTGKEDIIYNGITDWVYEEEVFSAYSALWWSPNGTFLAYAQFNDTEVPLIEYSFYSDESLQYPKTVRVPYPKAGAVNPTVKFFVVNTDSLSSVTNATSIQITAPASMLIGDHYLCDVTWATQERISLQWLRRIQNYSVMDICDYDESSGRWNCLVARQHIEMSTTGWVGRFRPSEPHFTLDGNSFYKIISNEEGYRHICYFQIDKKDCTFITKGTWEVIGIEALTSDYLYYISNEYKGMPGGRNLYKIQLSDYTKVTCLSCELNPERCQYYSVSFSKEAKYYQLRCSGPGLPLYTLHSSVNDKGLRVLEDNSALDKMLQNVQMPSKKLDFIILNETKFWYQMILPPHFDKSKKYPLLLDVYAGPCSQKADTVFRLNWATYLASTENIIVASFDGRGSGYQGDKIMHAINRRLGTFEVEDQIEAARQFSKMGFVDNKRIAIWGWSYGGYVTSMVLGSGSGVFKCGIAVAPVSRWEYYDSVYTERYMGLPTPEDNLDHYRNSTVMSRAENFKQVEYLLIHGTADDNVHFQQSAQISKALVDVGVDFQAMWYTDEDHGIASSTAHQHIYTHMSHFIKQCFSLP
T3 sequence (Q86TI2 whole entry): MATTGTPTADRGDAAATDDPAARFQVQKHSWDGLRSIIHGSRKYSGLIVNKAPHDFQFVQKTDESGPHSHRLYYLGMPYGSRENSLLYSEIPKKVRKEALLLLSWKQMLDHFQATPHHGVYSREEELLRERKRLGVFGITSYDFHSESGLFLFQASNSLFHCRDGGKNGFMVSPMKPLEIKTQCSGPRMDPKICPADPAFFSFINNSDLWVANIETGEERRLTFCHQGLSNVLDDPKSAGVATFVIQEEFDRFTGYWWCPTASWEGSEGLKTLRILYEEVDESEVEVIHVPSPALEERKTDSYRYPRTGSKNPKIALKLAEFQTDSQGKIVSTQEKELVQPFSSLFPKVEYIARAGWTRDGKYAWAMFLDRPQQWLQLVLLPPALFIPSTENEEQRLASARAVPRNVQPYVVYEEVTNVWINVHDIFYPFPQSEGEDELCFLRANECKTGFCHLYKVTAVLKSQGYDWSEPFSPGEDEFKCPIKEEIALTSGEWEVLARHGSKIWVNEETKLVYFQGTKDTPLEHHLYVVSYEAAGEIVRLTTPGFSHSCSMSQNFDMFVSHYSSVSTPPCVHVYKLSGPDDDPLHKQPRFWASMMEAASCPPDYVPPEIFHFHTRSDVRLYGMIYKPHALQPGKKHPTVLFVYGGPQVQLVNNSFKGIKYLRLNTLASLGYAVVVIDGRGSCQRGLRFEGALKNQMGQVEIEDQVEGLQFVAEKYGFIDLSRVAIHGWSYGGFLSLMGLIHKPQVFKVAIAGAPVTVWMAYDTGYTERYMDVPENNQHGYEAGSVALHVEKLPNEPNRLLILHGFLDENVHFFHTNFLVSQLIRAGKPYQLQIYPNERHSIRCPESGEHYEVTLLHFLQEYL

Row | SMILES | IC50 (human DPP IV) [µM] | IC50 [1] [µM] | IC50 (human DPP 8) [µM] | DPP 9 IC50 (Human DPP 9) | IC50 (FAP) [µM] | DPP 7 IC50 [1] | IC50 (Human DPP 9) [µM] | FAP IC50 (FAP) | DPP 8 IC50 (human DPP 8)
1 | N#Cc1ccccc1Cn1c(N2CCC[C@@H](N)C2)nc2c(C#N)csc2c1=O [Compound 83, (R)-2-(3-aminopiperidin-1-yl)-3-(2-cyanobenzyl)-4-oxo-3,4-dihydrothieno-[3,2-d]pyrimidine-7-carbonitrile] | 0.0161 | 38.2 | 317 | N.I. | 160 | – | – | – | –
2 | CN1CCN(C(=O)c2csc3c(=O)n(Cc4ccccc4C#N)c(N4CCC[C@@H](N)C4)nc23)CC1 [Compound 70, (R)-2-((2-(3-aminopiperidin-1-yl)-7-(4-methylpiperazine-1-carbonyl)-4-oxothieno[3,2-d]pyrimidin-3(4H)-yl)-methyl)benzonitrile] | 0.0186 | – | 38.9 | – | 136 | N.I. | 94.5 | – | –
3 | N#Cc1ccccc1Cn1c(N2CCC[C@@H](N)C2)nc2cc(C(=O)N3CCS(=O)(=O)CC3)sc2c1=O [Compound 114, (R)-2-((2-(3-aminopiperidin-1-yl)-6-(1,1-dioxidothiomorpholine-4-carbonyl)-4-oxothieno[3,2-d]pyrimidin-3(4H)-yl)-methyl)benzonitrile] | 0.0222 | – | 56.2 | – | 52.2 | N.I. | 307 | – | –
4 | COC(=O)[C@H](Cc1ccc(O)cc1)NC(=O)c1cc2nc(N3CCC[C@@H](N)C3)n(Cc3ccccc3C#N)c(=O)c2s1 [Compound 101, (S)-methyl 2-(2-((R)-3-aminopiperidin-1-yl)-3-(2-cyanobenzyl)-4-oxo-3,4-dihydrothieno[3,2-d]pyrimidine-6-carboxamido)-3-(4-hydroxyphenyl)-propanoate] | 0.0306 | – | 13.5 | – | 42 | N.I. | 14.8 | – | –
5 | CCOC(=O)CNC(=O)c1csc2c(=O)n(Cc3ccccc3C#N)c(N3CCC[C@@H](N)C3)nc12 [Compound 58, (R)-ethyl 2-(2-(3-aminopiperidin-1-yl)-3-(2-cyanobenzyl)-4-oxo-3,4-dihydrothieno[3,2-d]pyrimidine-7-carboxamido)acetate] | 0.00872 | – | 14.3 | N.I. | – | N.I. | – | N.I. | –
6 | N#Cc1ccccc1Cn1c(N2CCC[C@@H](N)C2)nc2c(C(=O)NCc3ccc(C(F)(F)F)cc3)csc2c1=O [Compound 68, (R)-2-(3-aminopiperidin-1-yl)-3-(2-cyanobenzyl)-4-oxo-N-(4-(trifluoromethyl)benzyl)-3,4-dihydrothieno[3,2-d]pyrimidine-7-carboxamide] | 0.023 | 145 | 8.16 | – | 8.78 | – | 100 | – | –
7 | N#Cc1ccccc1Cn1c(N2CCC[C@@H](N)C2)nc2c(C(=O)N3CCOCC3)csc2c1=O [Compound 69, (R)-2-((2-(3-aminopiperidin-1-yl)-7-(morpholine-4-carbonyl)-4-oxothieno-[3,2-d]pyrimidin-3(4H)-yl)methyl)-benzonitrile] | 0.0321 | – | – | N.I. | – | N.I. | – | N.I. | N.I.
8 | COC(=O)[C@@H](NC(=O)c1csc2c(=O)n(Cc3ccccc3C#N)c(N3CCC[C@@H](N)C3)nc12)C(C)C [Compound 59, (S)-methyl 2-(2-((R)-3-aminopiperidin-1-yl)-3-(2-cyanobenzyl)-4-oxo-3,4-dihydrothieno[3,2-d]pyrimidine-7-carboxamido)-3-methylbutanoate] | 0.0266 | – | 35 | – | 49.5 | N.I. | 187 | – | –
9 | CS(=O)(=O)Nc1csc2c(=O)n(Cc3ccccc3C#N)c(N3CCC[C@@H](N)C3)nc12 [Compound 85, (R)-N-(2-(3-aminopiperidin-1-yl)-3-(2-cyanobenzyl)-4-oxo-3,4-dihydrothieno-[3,2-d]pyrimidin-7-yl) methanesulfonamide] | 0.0371 | – | 339 | N.I. | 255 | N.I. | – | – | –
10 | CCNC(=O)c1csc2c(=O)n(Cc3ccccc3C#N)c(N3CCC[C@@H](N)C3)nc12 [Compound 71, (R)-2-(3-aminopiperidin-1-yl)-3-(2-cyanobenzyl)-N-ethyl-4-oxo-3,4-dihydrothieno[3,2-d]pyrimidine-7-carboxamide] | 0.0143 | 144 | 26.8 | – | 52.1 | – | 238 | – | –
11 | COC(=O)C1CCN(Cc2csc3c(=O)n(Cc4ccccc4C#N)c(N4CCC[C@@H](N)C4)nc23)CC1 [Compound 54, (R)-methyl 1-((2-(3-aminopiperidin-1-yl)-3-(2-cyanobenzyl)-4-oxo-3,4-dihydrothieno[3,2-d]pyrimidin-7-yl)-methyl)piperidine-4-carboxylate] | 0.238 | 39.2 | – | N.I. | – | – | – | N.I. | N.I.
12 | CC(=O)OCc1csc2c(=O)n(Cc3ccccc3C#N)c(N3CCC[C@@H](N)C3)nc12 [Compound 56, (R)-(2-(3-aminopiperidin-1-yl)-3-(2-cyanobenzyl)-4-oxo-3,4-dihydrothieno-[3,2-d]pyrimidin-7-yl)methyl acetate] | 0.0113 | – | – | N.I. | – | N.I. | – | N.I. | N.I.

Further lines, results first:

Row | IC50 (human DPP IV) [µM] | IC50 [1] [µM] | IC50 (human DPP 8) [µM] | DPP 9 IC50 (Human DPP 9) | IC50 (FAP) [µM] | DPP 7 IC50 [1] | IC50 (Human DPP 9) [µM] | FAP IC50 (FAP) | DPP 8 IC50 (human DPP 8) | SMILES
13 | 0.0204 | – | – | N.I. | – | N.I. | – | N.I. | N.I. | N#Cc1ccccc1Cn1c(N2CCC[C@@H](N)C2)nc2cc(C(N)=O)sc2c1=O [Compound 97, (R)-2-(3-aminopiperidin-1-yl)-3-(2-cyanobenzyl)-4-oxo-3,4-dihydrothieno-[3,2-d]pyrimidine-6-carboxamide]
14 | 0.0263 | – | – | – | – | N.I. | 53.1 | N.I. | N.I. | Cc1ccc(CNC(=O)c2cc3nc(N4CCC[C@@H](N)C4)n(Cc4ccccc4C#N)c(=O)c3s2)cc1 [Compound 122, (R)-2-(3-aminopiperidin-1-yl)-3-(2-cyanobenzyl)-N-(4-methylbenzyl)-4-oxo-3,4-dihydrothieno[3,2-d]-pyrimidine-6-carboxamide]
15 | 0.016 | – | 63.2 | – | 118 | N.I. | 78.5 | – | – | CCCCNC(=O)c1cc2nc(N3CCC[C@@H](N)C3)n(Cc3ccccc3C#N)c(=O)c2s1 [Compound 117, (R)-2-(3-aminopiperidin-1-yl)-N-butyl-3-(2-cyanobenzyl)-4-oxo-3,4-dihydrothieno[3,2-d]pyrimidine-6-carboxamide]
16 | 0.0283 | – | 43.1 | – | 119 | N.I. | 117 | – | – | COC(=O)[C@@H](NC(=O)c1cc2nc(N3CCC[C@@H](N)C3)n(Cc3ccccc3C#N)c(=O)c2s1)C(C)C [Compound 100, (S)-methyl 2-(2-((R)-3-aminopiperidin-1-yl)-3-(2-cyanobenzyl)-4-oxo-3,4-dihydrothieno[3,2-d]pyrimidine-6-carboxamido)-3-methylbutanoate]
17 | 0.0186 | – | 95.3 | N.I. | 126 | N.I. | – | – | – | CC(C)CNC(=O)c1cc2nc(N3CCC[C@@H](N)C3)n(Cc3ccccc3C#N)c(=O)c2s1 [Compound 116, (R)-2-(3-aminopiperidin-1-yl)-3-(2-cyanobenzyl)-N-isobutyl-4-oxo-3,4-dihydrothieno[3,2-d]pyrimidine-6-carboxamide]
18 | 0.0102 | – | 27 | – | 85.9 | N.I. | 35.2 | – | – | N#Cc1ccccc1Cn1c(N2CCC[C@@H](N)C2)nc2cc(CO)sc2c1=O [Compound 28, (R)-2-((2-(3-aminopiperidin-1-yl)-6-(hydroxymethyl)-4-oxothieno[3,2-d]-pyrimidin-3(4H)-yl)methyl)benzonitrile]

Reference: US9045491B2, “Thienyl [3,2-D] pyrimidin-4-one compounds, preparation method, pharmaceutical compositions and use thereof” (SHANGHAI INSTITUTE OF MATERIA MEDICA, CHINESE ACADEMY OF …, priority 2011, dated 2015)
